Results: patent publication US6737383B1, “Herbicidal oxadiazolidines” (priority 1999, dated 2004)

Experiments:
bedstraw = test: Test B pre/postemergence bedstraw; type: in vivo, Galium aparine
Outline: (§1)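 Response is a visual 0-to-10 score relative to untreated plants, where 0 means no effect and 10 means complete control, taken twelve to sixteen days after application. Treatments went onto soil at planting and onto foliage of 1- to 4-leaf plants, using a surfactant-containing non-phytotoxic solvent.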

surinam grass = test: Test B pre/postemergence surinam grass; type: in vivo, Brachiaria decumbens; details: Postemergence
Outline: as §1

rape = test: Test B pre/postemergence rape; type: in vivo, Brassica napus
Outline: as §1

giant foxtail = test: Test B pre/postemergence giant foxtail; type: in vivo, Setaria faberii
Outline: as §1

wheat = test: Test B pre/postemergence wheat; type: in vivo, Triticum aestivum
Outline: as §1

pigweed = test: Test B pre/postemergence pigweed; type: in vivo, Amaranthus retroflexus
Outline: as §1

morningglory = test: Test B pre/postemergence morningglory; type: in vivo, Ipomoea hederacea
Outline: as §1

velvetleaf = test: Test B pre/postemergence velvetleaf; type: in vivo, Abutilon theophrasti
Outline: as §1

purple nutsedge = test: Test B pre/postemergence purple nutsedge; type: in vivo, Cyperus rotundus
Outline: as §1

duck salad = test: Test B flood test duck salad; type: in vivo, Heteranthera limosa
Outline: (§2)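 Flood test on plants grown to the 2-leaf stage; treated plants kept in greenhouse twelve to sixteen days, then visually rated against controls on a 0 (no effect) to 10 (complete control) scale.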

wild oat = test: Test B pre/postemergence wild oat; type: in vivo, Avena fatua
Outline: as §1

crabgrass = test: Test B pre/postemergence crabgrass; type: in vivo, Digitaria sanguinalis
Outline: as §1

corn = test: Test B pre/postemergence corn; type: in vivo, Zea mays
Outline: as §1

rice = test: Test B flood test rice; type: in vivo, Oryza sativa
Outline: as §2

blackgrass = test: Test B pre/postemergence blackgrass; type: in vivo, Alopecurus myosuroides
Outline: as §1

soybean = test: Test B pre/postemergence soybean; type: in vivo, Glycine max
Outline: as §1

[1] = Postemergence, Rate 62 g/ha, scale 0 to 10, 0 is no effect, 10 is complete control
[2] = Postemergence, Rate 125 g/ha, scale of 0 to 10 where 0 is no effect and 10 is complete control
[3] = Preemergence, Rate 125 g/ha, scale of 0 to 10 where 0 is no effect and 10 is complete control
[4] = Preemergence, Rate 250 g/ha, scale 0 (no effect) to 10 (complete control)
[5] = Rate 62 g/ha, Preemergence, scale 0 to 10
[6] = Rate 500 g/ha, Postemergence, scale 0 to 10, 0 is no effect, 10 is complete control
[7] = Rate 500 g/ha, Preemergence, scale 0 to 10 (0 no effect, 10 complete control)
[8] = Rate 250 g/ha, Postemergence, scale 0 to 10, 0 is no effect, 10 is complete control
[9] = Pre-emergence, Rate 62 g/ha, scale 0 to 10, 0 is no effect, 10 is complete control
[10] = Rate 125 g/ha, Pre-emergence section (flood test species), scale 0 to 10, 0 no effect, 10 complete control
[11] = Rate 250 g/ha, Pre-emergence (flood test species), scale 0 to 10, 0 is no effect, 10 is complete control
[12] = Rate 500 g/ha, Pre-emergence section of Table B, 0 to 10 scale (0 no effect, 10 complete control)

CC(C)N(C(=O)n1oc(=O)n(CC2=NOCCO2)c1=O)c1ccc(Cl)cc1 [Compound 740]
Plant response rating, Bedstraw (bedstraw; [1]): 0
Bedstraw plant response rating (bedstraw; [2]): 0
Plant response rating, Bedstraw (bedstraw; [3]): 0
Bedstraw plant response rating (bedstraw; [4]): 0
Bedstraw plant response rating (bedstraw; [5]): 0
Bedstraw plant response rating (bedstraw; [6]): 0
Bedstraw plant response rating (bedstraw; [7]): 0
Plant response rating, B. signalgrass (surinam grass; Rate 62 g/ha, scale 0 to 10, 0 is no effect, 10 is complete control): 0
B. signalgrass plant response rating (surinam grass; Rate 125 g/ha, scale of 0 to 10 where 0 is no effect and 10 is complete control): 0
B. signalgrass plant response rating (surinam grass; Rate 250 g/ha, scale 0 to 10, 0 is no effect, 10 is complete control): 0
B. signalgrass plant response rating (surinam grass; Rate 500 g/ha, scale 0 to 10, 0 is no effect, 10 is complete control): 2
Plant response rating, Rape (rape; [1]): 0
Rape plant response rating (rape; [2]): 0
Plant response rating, Rape (rape; [3]): 3
Rape plant response rating (rape; [4]): 5
Rape plant response rating (rape; [5]): 0
Rape plant response rating (rape; [8]): 0
Rape plant response rating (rape; [6]): 0
Plant response rating, Giant foxtail (giant foxtail; [1]): 2
Giant foxtail plant response rating (giant foxtail; [2]): 7
Plant response rating, Giant foxtail (giant foxtail; [3]): 9
Giant foxtail plant response rating (giant foxtail; [4]): 9
Giant foxtail plant response rating (giant foxtail; [5]): 4
Giant foxtail plant response rating (giant foxtail; [8]): 8
Giant foxtail plant response rating (giant foxtail; [6]): 9
Giant foxtail plant response rating (giant foxtail; [7]): 10
Plant response rating, Wheat (wheat; [1]): 0
Wheat plant response rating (wheat; [2]): 0
Plant response rating, Wheat (wheat; [3]): 0
Wheat plant response rating (wheat; [4]): 0
Wheat plant response rating (wheat; [5]): 0
Wheat plant response rating (wheat; [8]): 0
Wheat plant response rating (wheat; [6]): 4
Wheat plant response rating (wheat; [7]): 3
Plant response rating, Redroot pigweed (pigweed; [1]): 0
Redroot pigweed plant response rating (pigweed; [2]): 2
Plant response rating, Redroot pigweed (pigweed; [3]): 9
Redroot pigweed plant response rating (pigweed; [4]): 9
Redroot pigweed plant response rating (pigweed; [5]): 3
Redroot pigweed plant response rating (pigweed; [8]): 4
Redroot pigweed plant response rating (pigweed; [6]): 8
Redroot pigweed plant response rating (pigweed; [7]): 10
Plant response rating, Morningglory (morningglory; [1]): 2
Morningglory plant response rating (morningglory; [2]): 3
Plant response rating, Morningglory (morningglory; [3]): 0
Morningglory plant response rating (morningglory; [4]): 0
Morningglory plant response rating (morningglory; [5]): 0
Morningglory plant response rating (morningglory; [8]): 3
Morningglory plant response rating (morningglory; [6]): 7
Morningglory plant response rating (morningglory; [7]): 0
Plant response rating, Velvetleaf (velvetleaf; [1]): 0
Velvetleaf plant response rating (velvetleaf; [2]): 0
Plant response rating, Velvetleaf (velvetleaf; [3]): 0
Velvetleaf plant response rating (velvetleaf; [4]): 0
Velvetleaf plant response rating (velvetleaf; [5]): 0
Velvetleaf plant response rating (velvetleaf; [8]): 2
Velvetleaf plant response rating (velvetleaf; [6]): 2
Velvetleaf plant response rating (velvetleaf; [7]): 3
Plant response rating, Nutsedge (purple nutsedge; [1]): 0
Nutsedge plant response rating (purple nutsedge; [2]): 0
Plant response rating, Nutsedge (purple nutsedge; [3]): 0
Nutsedge plant response rating (purple nutsedge; [4]): 0
Nutsedge plant response rating (purple nutsedge; [5]): 0
Nutsedge plant response rating (purple nutsedge; [8]): 0
Nutsedge plant response rating (purple nutsedge; [6]): 0
Nutsedge plant response rating (purple nutsedge; [7]): 0
Ducksalad plant response rating (duck salad; [9]): 0
Ducksalad plant response rating (duck salad; [10]): 0
Ducksalad plant response rating (duck salad; [11]): 0
Ducksalad plant response rating (duck salad; [12]): 0
Plant response rating, Wild oats (wild oat; [1]): 0
Wild oats plant response rating (wild oat; [2]): 0
Plant response rating, Wild oats (wild oat; [3]): 0
Wild oats plant response rating (wild oat; [4]): 2
Wild oats plant response rating (wild oat; [5]): 0
Wild oats plant response rating (wild oat; [8]): 0
Wild oats plant response rating (wild oat; [6]): 0
Wild oats plant response rating (wild oat; [7]): 6
Plant response rating, Crabgrass (crabgrass; [1]): 0
Crabgrass plant response rating (crabgrass; [2]): 0
Plant response rating, Crabgrass (crabgrass; [3]): 4
Crabgrass plant response rating (crabgrass; [4]): 9
Crabgrass plant response rating (crabgrass; [5]): 4
Crabgrass plant response rating (crabgrass; [8]): 9
Crabgrass plant response rating (crabgrass; [6]): 9
Crabgrass plant response rating (crabgrass; [7]): 9
Plant response rating, Corn (corn; [1]): 0
Corn plant response rating (corn; [2]): 0
Plant response rating, Corn (corn; [3]): 0
Corn plant response rating (corn; [4]): 0
Corn plant response rating (corn; [5]): 0
Corn plant response rating (corn; [8]): 0
Corn plant response rating (corn; [6]): 0
Corn plant response rating (corn; [7]): 0
Rice plant response rating (rice; [9]): 0
Rice plant response rating (rice; [10]): 0
Rice plant response rating (rice; [11]): 0
Rice plant response rating (rice; [12]): 0
Plant response rating, Blackgrass (blackgrass; [1]): 3
Blackgrass plant response rating (blackgrass; [2]): 3
Plant response rating, Blackgrass (blackgrass; [3]): 6
Blackgrass plant response rating (blackgrass; [4]): 8
Blackgrass plant response rating (blackgrass; [5]): 3
Blackgrass plant response rating (blackgrass; [8]): 4
Blackgrass plant response rating (blackgrass; [6]): 7
Blackgrass plant response rating (blackgrass; [7]): 9
Plant response rating, Soybean (soybean; [1]): 2
Soybean plant response rating (soybean; [2]): 3
Plant response rating, Soybean (soybean; [3]): 0
Soybean plant response rating (soybean; [4]): 0
Soybean plant response rating (soybean; [5]): 0
Soybean plant response rating (soybean; [8]): 4
Soybean plant response rating (soybean; [6]): 6
Soybean plant response rating (soybean; [7]): 0
